Key:
[1] = target: T1, full-length human Hpk1 (Homo sapiens, UniProt Q92918); assay: HPK1 kinase assay (ADP Glo Kinase Assay); type: biochemical; settings: full-length human GST-Hpk1, ADP Glo, 75 μM ATP; read-out: Hpk1 biochemical (pIC50) (converted)
T1 construct: A recombinant fusion protein consisting of full-length human Hpk1; GST (N)
Description: Pharmacological Part HPK1 Kinase Assay
A recombinant fusion protein consisting of full-length human Hpk1 with an N-terminal Glutatione S-transferase (GST) tag was produced in a baculovirus/insect cell expression system. GST-Hpk1 protein was purified from cell lysates by glutathione sepharose affinity chromatography. Kinase inhibition was determined using the ADP Glo™ Kinase Assay kit (Promega, V9101). Test compounds were prepared by serial dilution in dimethyl sulfoxide (DMSO) and 0.1 μl of each dilution was spotted onto a 384-well white Proxiplate (Perkin Elmer, 6008289). 8 μl of kinase assay buffer (40 mM Tris pH 7.5, 2 mM dithiothreitol (DTT), 0.05% Bovine Serum Albumin, 5 mM MgCl2) containing Hpk1 protein was transferred to each well and incubated for 30-45 minutes at room temperature. The enzymatic reaction was started by adding 2 μl of kinase assay buffer containing 75 μM ATP. After 120 minutes, the reaction was stopped by adding 3 μl of ADP Glo™ reagent (Promega, V9101) and incubating 45 minutes at room temperature.

[2] = target: Hpk1 (Homo sapiens, UniProt Q92918); assay: SLP76 phosphorylation assay (SLP76 pS376 in lysates of HEK293 cells engineered to express Hpk1 and SLP76); type: cell-based; settings: HEK293 cells expressing Hpk1 and SLP76, 4 hours incubation; read-out: pSLP76 (HEK293) (pIC50) (converted)
Sequence of Hpk1 (Q92918 whole entry): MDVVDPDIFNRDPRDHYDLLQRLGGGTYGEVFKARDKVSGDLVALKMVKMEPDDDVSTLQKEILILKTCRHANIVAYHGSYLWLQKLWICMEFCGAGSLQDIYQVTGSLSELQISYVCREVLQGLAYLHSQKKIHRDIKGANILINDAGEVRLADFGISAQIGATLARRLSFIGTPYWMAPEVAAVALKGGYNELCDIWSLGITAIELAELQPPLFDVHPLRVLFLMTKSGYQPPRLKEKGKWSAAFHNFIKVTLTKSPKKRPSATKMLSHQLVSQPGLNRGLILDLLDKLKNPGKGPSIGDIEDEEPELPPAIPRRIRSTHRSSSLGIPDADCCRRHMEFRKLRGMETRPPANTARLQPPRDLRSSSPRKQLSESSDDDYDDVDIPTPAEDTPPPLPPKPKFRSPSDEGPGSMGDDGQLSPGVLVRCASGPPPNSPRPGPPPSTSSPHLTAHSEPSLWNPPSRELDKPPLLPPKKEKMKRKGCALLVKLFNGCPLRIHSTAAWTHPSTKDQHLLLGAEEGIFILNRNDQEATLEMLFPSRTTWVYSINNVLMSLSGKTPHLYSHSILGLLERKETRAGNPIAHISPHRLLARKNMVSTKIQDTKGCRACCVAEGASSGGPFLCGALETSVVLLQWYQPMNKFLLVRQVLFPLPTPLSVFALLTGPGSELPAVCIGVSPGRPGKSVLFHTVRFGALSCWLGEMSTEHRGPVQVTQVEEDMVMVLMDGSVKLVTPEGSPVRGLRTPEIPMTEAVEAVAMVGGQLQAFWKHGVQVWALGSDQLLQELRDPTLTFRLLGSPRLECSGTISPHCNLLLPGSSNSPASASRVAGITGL
Description: SLP76 Phosphorylation Assay
Hpk1 inhibition in cells was determined by detection of SLP76 phosphorylation at S376 in lysates from HEK293 cells engineered to express Hpk1 and SLP76. Serial dilutions of test compounds were prepared in cell culture medium and 20 μl was transferred into each well of a 96-well plate containing HEK293 cells in 180 μl of culture medium. After incubation for 4 hours at 37° C./5% CO2, the culture medium was removed, plates were put on ice and cells washed with cold Minimal Essential Medium before lysing in 90 μl of cold Mammalian Protein Extraction Reagent (Thermo Scientific, 78501) for 30 minutes on ice. The cell lysates were transferred to another 96-well plate, centrifuged 10 minutes at 3000 rcf (4° C.) and 30 μl transferred to a 96-well High-bind plate (MSD, L15XB-3). After coating overnight at 4° C., the cell lysate was removed, wells were washed with base buffer (TBS, 0.2% Tween-20), and blocking solution (base buffer containing 3% MSD blocker A) was added to each well for 1 hour at room temperature. The blocking solution was removed, the wells were washed with base buffer, and detection antibody (SLP76 pS376) was added in 25 μl base buffer containing 1% MSD blocker A to each well. After a 2 h incubation at room temperature, the detection antibody was removed, wells were washed four times with base buffer, 25 μl SULFO-TAG labeled goat anti-rabbit secondary antibody (MSD, R32AB-1) in base buffer containing 1% MSD blocker A was added to each well and left for 1 hour at room temperature. Wells were washed 4 times with base buffer, 150 μl Read Buffer T was added to each well, and the plates were read in a Mesoscale plate reader (MSD). IC50 values were determined by curve-fitting the electrochemiluminescent signals obtained from the lysates of HEK293 cells expressing Hpk1 and SLP76 treated with test compounds at various concentrations minus the signal obtained from HEK293 cells expressing SLP76 only.

T1 sequence (Q92918 whole entry, the tested form may be a part): as the sequence (Q92918 whole entry) above

IC50 [1] | IC50 [2] | SMILES
5750 nM |  | C[C@@H]1COC[C@H](c2cc(-c3cnc(N)c(-c4ccncc4)c3)ccc2C2CCOCC2)N1 (single isomer, unassigned) [Co. 83b]
6.31 nM | 347 nM | Nc1ncc(-c2ccc(C3CCOCC3)c([C@@H]3CC4(CC4)CN3)c2)cc1-c1ccncc1 (single isomer, unassigned) [Co. 8a]
31.6 nM | 1070 nM | Nc1ncc(-c2ccc(C3CCOCC3)c([C@@H]3CCCN3)c2)cc1-c1ccc(F)cc1 [Co. 62]
8.13 nM | 676 nM | Nc1ncc(-c2ccc(C3CCOCC3)c([C@@H]3CCCN3)c2)cc1-c1ccnc(F)c1Cl [Co. 35]
15.5 nM | 813 nM | Cn1cc(-c2cc(-c3ccc(C4CCOCC4)c([C@@H]4COCCN4)c3)cnc2N)cn1 [Co. 81]
178 nM | 7410 nM | CN(Cc1cc(-c2cnc(N)c(-c3ccncc3)c2)ccc1C1CCOCC1)C1CC1 [Co. 106]
26.3 nM | > 10000 nM | Nc1ncc(-c2ccc(C3CCOCC3)c([C@@H]3CCCN3)c2)cc1-c1cc[nH]c(=O)c1 [Co. 57]
6.31 nM | 1410 nM | Cn1cc(-c2cc(-c3ccc(C4CCOCC4)c([C@@H]4CCCN4)c3)cnc2N)cn1 [Co. 68]
34.7 nM | 1950 nM | CN(C)Cc1cc(-c2cnc(N)c(-c3ccccc3)c2)ccc1C1CCOCC1 [Co. 76]
46.8 nM | 1660 nM | CN(C)Cc1cc(-c2cnc(N)c(-c3ccnc(N4CCNCC4)c3)c2)ccc1C1CCOCC1 [Co. 67]
6.61 nM | 282 nM | C[C@@H]1CCN[C@@H]1c1cc(-c2cnc(N)c(-c3ccncc3)c2)ccc1C1CCOCC1 (racemic) [Co. 10]
7.59 nM | 1290 nM | Nc1ncc(-c2ccc(C3CCCCC3)c([C@@H]3CCCN3)c2)cc1-c1ccnc(F)c1 [Co. 38]
35.5 nM | > 10000 nM | Nc1ncc(-c2ccc(C3CCOCC3)c([C@@H]3CCCN3)c2)cc1-c1ccc(=O)[nH]c1 [Compound 56]
19.5 nM | 1860 nM | Nc1ncc(-c2ccc(C3CCS(=O)(=O)CC3)c([C@@H]3CCCN3)c2)cc1-c1ccnc(F)c1 [Co. 100]
112 nM | 4170 nM | Nc1ncc(-c2ccc(C3CCOCC3)c([C@@H]3COCCN3)c2)cc1F [Co. 88]
13.2 nM | 891 nM | COc1cnccc1-c1cc(-c2ccc(C3CCOCC3)c([C@@H]3CCCN3)c2)cnc1N [Co. 24]
20 nM | 2450 nM | Nc1ncc(-c2ccc(C3CCC(F)(F)CC3)c([C@@H]3CCCN3)c2)cc1-c1ccnc(F)c1 [Co. 50]
26.3 nM | 724 nM | CS(=O)(=O)N1CCC(c2ccc(-c3cnc(N)c(-c4ccnc(F)c4)c3)cc2[C@@H]2CCCN2)CC1 [Co. 98]
912 nM |  | Nc1ncc(-c2ccc(C3CCOCC3)c([C@H]3CC4(CC4)CN3)c2)cc1-c1ccnc(F)c1 (single isomer, unassigned) [Compound 5b]
28.2 nM | 1860 nM | Nc1ncc(-c2ccc(C3CCOCC3)c([C@@H]3CCCN3)c2)cc1-c1cc(F)ncc1Cl [Co. 32]
5.75 nM | 240 nM | Nc1ncc(-c2ccc(C3CCOCC3)c([C@@H]3CCCN3)c2)cc1-c1ccnc(F)c1F [Co. 27]
47.9 nM | 1100 nM | COc1cc(-c2ccc(C3CCOCC3)c([C@@H]3COCCN3)c2)cnc1N [Co. 87]
35.5 nM | 5010 nM | Nc1ncc(-c2ccc(N3CCOCC3)c(C3CCCN3)n2)cc1-c1ccncc1 (centres unmarked) [Co. 11]
4.27 nM | 977 nM | CS(=O)(=O)n1cc(-c2cc(-c3ccc(C4CCOCC4)c([C@@H]4CCCN4)c3)cnc2N)cn1 [Co. 19]
2.34 nM | 275 nM | Cc1cc(-c2cc(-c3ccc(C4CCOCC4)c([C@@H]4CCCN4)c3)cnc2N)on1 [Co. 39]
316 nM |  | Cc1cnccc1-c1cc(-c2ccc(C3CCOCC3)c(CN(C)C)c2)cnc1N [Co. 69]
832 nM |  | Nc1ncc(-c2ccc(C3CCOCC3)c(CN3CCC(F)(F)C3)c2)cc1-c1ccncc1 [Co. 107]

From patent US12492194B2, “HPK1 inhibitors” (Janssen Pharmaceutica NV, priority 2019, dated 2025)
